Assay results reported in ChEMBL document CHEMBL1201862, “PubChem BioAssay data set” (2004).
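How tested: cells in 96-well plates exposed to compound for 48 hours at five concentrations. The concentration for 50% growth inhibition is given as GI50.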 The source made the active and inactive calls. Cut-off read from the data, not from the text of the source: active = GI50 up to about 1.1 µM and inactive = higher.

What was measured:
Experiment in all cases: inhibition of tumour cell growth, NCI panel, 48 h
[1] = test system: 786-0
[2] = test system: A498
[3] = test system: A549
[4] = test system: ACHN
[5] = test system: BT-549
[6] = test system: CAKI-1
[7] = test system: CCRF-CEM
[8] = test system: COLO 205
[9] = test system: DU-145
[10] = test system: EKVX
[11] = test system: HCC 2998
[12] = test system: HCT-116
[13] = test system: HCT-15
[14] = test system: HL-60
[15] = test system: HOP-62
[16] = test system: HOP-92
[17] = test system: HT-29
[18] = test system: Hs-578T
[19] = test system: IGROV-1
[20] = test system: K562
[21] = test system: KM12
[22] = test system: LOX IMVI
[23] = test system: M14
[24] = test system: MCF7
[25] = test system: MDA-MB-231
[26] = test system: MDA-MB-435
[27] = test system: MDA-N
[28] = test system: MOLT-4
[29] = test system: Malme-3M
[30] = test system: NCI-H226
[31] = test system: NCI-H23
[32] = test system: NCI-H460
[33] = test system: NCI-H522
[34] = test system: NCI/ADR-RES
[35] = test system: OVCAR-3
[36] = test system: OVCAR-4
[37] = test system: OVCAR-5
[38] = test system: OVCAR-8
[39] = test system: PC-3
[40] = test system: RPMI-8226
[41] = test system: RXF 393
[42] = test system: SF-268
[43] = test system: SF-295
[44] = test system: SF-539
[45] = test system: SK-MEL-28
[46] = test system: SK-MEL-2
[47] = test system: SK-OV-3
[48] = test system: SN12C
[49] = test system: SNB-19
[50] = test system: SNB-75
[51] = test system: SR
[52] = test system: SW-620
[53] = test system: T47D
[54] = test system: TK-10
[55] = test system: U-251
[56] = test system: UACC-257
[57] = test system: UACC-62
[58] = test system: UO-31
[59] = test system: SK-MEL-5

Measured: GI50

Cc1ccc(Nc2c(C#N)[n+]([O-])c3cc(Cl)ccc3[n+]2[O-])cc1
5.15 µM: [13]
inactive: [1] 4.8 µM | [2] > 100 µM | [3] 23.8 µM | [4] 11.2 µM | [5] 9.46 µM | [6] 42 µM | [7] 3.23 µM | [8] 18.4 µM | [9] > 100 µM | [10] > 81.3 µM | [11] 21.8 µM | [12] 8.79 µM | [14] 3.44 µM | [15] 43.1 µM | [16] > 100 µM | [17] 11.2 µM | [18] > 100 µM | [19] 15.5 µM | [20] 11 µM | [21] 12.6 µM | [22] 6.85 µM | [23] 30.3 µM | [24] 15.3 µM | [25] > 100 µM | [26] 44.7 µM | [27] > 53.8 µM | [28] 4.8 µM | [29] 79.3 µM | [30] 28.2 µM | [31] 40.5 µM | [32] 9.31 µM | [33] 11.4 µM | [34] 9.95 µM | [35] 4.13 µM | [36] 24.1 µM | [37] > 100 µM | [38] 11.7 µM | [39] 9.66 µM | [40] 4.61 µM | [41] > 22.1 µM | [42] 28.4 µM | [43] 13.6 µM | [44] 26.6 µM | [45] > 100 µM | [46] > 100 µM | [47] 61.7 µM | [48] > 33.2 µM | [49] > 100 µM | [50] 39.5 µM | [51] 7.98 µM | [52] 37.5 µM | [53] > 100 µM | [54] 29 µM | [55] 29.3 µM | [56] > 76.7 µM | [57] 20.7 µM | [58] 82.4 µM

Fc1cc2nc3n(c2cc1F)C(c1c(Cl)cccc1Cl)SC3 (stereo not drawn)
17.5 µM: [13]
inactive: [1] 15 µM | [2] 20.1 µM | [3] 14.9 µM | [4] 17.5 µM | [5] 21.8 µM | [6] 14.1 µM | [8] 18.7 µM | [9] 17.5 µM | [10] 18.4 µM | [11] 15.8 µM | [12] 12.6 µM | [14] 15.5 µM | [15] 16 µM | [16] 13.6 µM | [17] 16.2 µM | [18] 18.4 µM | [19] 18.5 µM | [21] 13.4 µM | [22] 16.3 µM | [23] 15.7 µM | [24] 16.5 µM | [25] 18.8 µM | [26] 15.1 µM | [27] 15.7 µM | [28] 24.4 µM | [29] 17.6 µM | [30] 24.7 µM | [31] 16.6 µM | [32] 13.7 µM | [33] 16.9 µM | [34] 16.1 µM | [35] 13 µM | [36] 15.9 µM | [37] 14.3 µM | [38] 16 µM | [39] 16.3 µM | [40] 11.9 µM | [41] 14.9 µM | [42] 16.5 µM | [43] 13.4 µM | [44] 20.5 µM | [45] 14 µM | [46] 17.1 µM | [59] 7.82 µM | [47] 16.5 µM | [48] 16.3 µM | [49] 14 µM | [50] 13.7 µM | [51] 4.51 µM | [52] 18 µM | [53] 14.3 µM | [54] 18.2 µM | [55] 17.1 µM | [56] 13.6 µM | [57] 12.6 µM | [58] 15.8 µM

COc1ccc2c(c1OC)C(Br)CCC(Br)(Br)C2=O (stereo not drawn)
5.57 µM: [13]
inactive: [1] 4.23 µM | [2] 16 µM | [3] 13.6 µM | [4] 1.94 µM | [5] 7.87 µM | [6] 1.78 µM | [8] 3.02 µM | [9] 12.4 µM | [10] 14.1 µM | [11] 11.6 µM | [12] 4.9 µM | [14] 5.27 µM | [15] 18.9 µM | [16] 3.52 µM | [17] 4.43 µM | [18] 18.5 µM | [19] 5.83 µM | [20] 2.79 µM | [21] 16.3 µM | [22] 2.93 µM | [23] 5.25 µM | [24] 9.02 µM | [25] 16.3 µM | [26] 6.41 µM | [27] 3.99 µM | [28] 1.75 µM | [29] 10.7 µM | [30] 14 µM | [31] 7.21 µM | [32] 16 µM | [33] 1.58 µM | [34] 14.1 µM | [35] 15.8 µM | [36] 6 µM | [37] 17.5 µM | [38] 7.45 µM | [39] 11.9 µM | [40] 4.81 µM | [41] 3.91 µM | [42] 14 µM | [43] 17.6 µM | [44] 3.17 µM | [45] 13.1 µM | [46] 14.4 µM | [59] 2.47 µM | [47] 16.4 µM | [48] 4.83 µM | [49] 15.5 µM | [51] 1.27 µM | [52] 2.25 µM | [53] 13.8 µM | [54] 6.79 µM | [55] 16.7 µM | [56] 14.6 µM | [57] 14.6 µM | [58] 4.81 µM

CCOC(=O)Nc1cc2ccccc2c(/N=N/c2ccccc2)c1O
inactive: [1] 34.8 µM | [2] > 100 µM | [3] > 100 µM | [4] > 100 µM | [5] > 100 µM | [6] 75.3 µM | [7] > 100 µM | [8] > 100 µM | [9] > 100 µM | [10] > 100 µM | [11] > 100 µM | [12] > 100 µM | [14] > 100 µM | [15] 27.9 µM | [16] 88.7 µM | [17] > 100 µM | [18] 25.2 µM | [19] 59.7 µM | [20] > 100 µM | [21] > 100 µM | [23] > 100 µM | [24] 56.4 µM | [25] > 100 µM | [26] > 100 µM | [27] > 100 µM | [28] > 100 µM | [29] 55.6 µM | [30] > 100 µM | [31] > 100 µM | [32] > 100 µM | [33] 29.6 µM | [34] > 100 µM | [35] > 100 µM | [36] 20.2 µM | [37] > 100 µM | [38] 37.2 µM | [39] > 100 µM | [40] > 100 µM | [41] 20.7 µM | [42] 58.2 µM | [43] 31.7 µM | [44] 13 µM | [45] > 100 µM | [46] > 100 µM | [59] > 100 µM | [47] 17.2 µM | [48] > 100 µM | [49] 84.1 µM | [50] 31 µM | [51] > 100 µM | [52] > 100 µM | [53] 91.4 µM | [54] > 100 µM | [55] 26.5 µM | [56] > 100 µM | [57] > 100 µM | [58] > 100 µM
> 100 µM: [13]

CCCCCCCCCCCCCCCCNc1nc(=O)n(C2OC(C)C(O)C2O)cc1F (stereo not drawn)
14.9 µM: [13]
inactive: [1] 19.9 µM | [2] 19.5 µM | [3] 23.1 µM | [4] 15.5 µM | [5] 19.7 µM | [6] 21.1 µM | [7] 16.3 µM | [8] 24.4 µM | [9] 19.5 µM | [10] 18.4 µM | [11] 16.9 µM | [12] 18.4 µM | [14] 14.5 µM | [15] 16.4 µM | [16] 22.9 µM | [17] 17.2 µM | [18] 21.8 µM | [19] 17.6 µM | [21] 17.4 µM | [22] 24.3 µM | [23] 17.2 µM | [24] 17 µM | [25] 20.7 µM | [26] 15.5 µM | [27] 19.1 µM | [28] 20.2 µM | [29] 23.1 µM | [30] 21 µM | [31] 18 µM | [32] 17 µM | [33] 18.7 µM | [34] 18.9 µM | [35] 17.5 µM | [36] 22.1 µM | [37] 20.6 µM | [38] 21.8 µM | [39] 13.2 µM | [40] 10.6 µM | [41] 20.7 µM | [42] 20 µM | [43] 20.8 µM | [44] 18.2 µM | [45] 19.2 µM | [46] 18.9 µM | [59] 18.5 µM | [47] 22.9 µM | [48] 21.9 µM | [49] 18.8 µM | [50] 18.5 µM | [51] 23.9 µM | [52] 19.9 µM | [53] 21.1 µM | [54] 16.8 µM | [55] 23.7 µM | [56] 20.5 µM | [57] 15.6 µM | [58] 14 µM
